Results on six compounds are retold here after patent publication US4554273A, “2-Amino-5-phenyl-1,3-benzodiazepines” (Lipha Lyonnaise Industrielle Pharmaceutique, priority 1983, dated 1985).

The structures appear in SMILES notation. Where a name gives a salt, the structure may show the parent alone.

As usually defined, the ED50 is the dose at which the effect has come halfway, by size or by number of responders. A high value points to a need for a large dose. For orientation: LD50 means the dose expected to kill half of the subjects tested.

The subject of one data set is Reserpine ptosis. The data set is described as follows: inhibition of reserpine ptosis (oral). It is filed as in vivo. The note with it: Mus musculus, 1.5 h, Swiss mice, reserpine 5 mg/kg intraperitoneal, compounds orally at the same time, ptosis marked 1 h 30 min later. The protocol:
The mood-modifying activity of the compounds is evaluated by standardized tests such as inhibition of known reserpine ptosis. Reserpine ptosis may be induced by methods such as those described in the literature. For example, Rubin, et al, [J. Pharmacol, Exp. Ther. 120: 125(1957)] induced ptosis in Swiss mice by intraperitoneal injection of 5 mg/kg of reserpine. This ptosis was marked 1 h 30 min later. Compounds to be tested for reserpine inhibition were administered orally at the same time as the reserpine was injected.

A short description of data set [1]: lethal dose (LD50) determined orally in Swiss mice. As to conditions: mouse, in vivo, oral.

`CN(C)CCC=C1c2ccccc2CCc2ccccc21` [AMITRIPTYLINE, 5-(3-dimethylaminopropylidene)dibenzo[a,d]-1,4-cycloheptadiene hydrochloride, reference compound] displayed an ED50 in the data set with Reserpine ptosis of 10 mg/kg. For the compound `NC1=Nc2ccccc2C(c2ccccc2)CN1` (centres unmarked) [Example 1, 2-Amino-5-phenyl-4,5-3H-dihydro-1,3-benzodiazepine hydrochloride], in the data set on Reserpine ptosis, the ED50 came out at 18 mg/kg. The compound also gave a 50% lethal dose (LD50) in data set [1] of 600 mg/kg. The matching figures for `Cc1ccc(C2CNC(N)=Nc3ccccc32)cc1` (centres unmarked) [Example 3, 2-Amino-5-(4-methylphenyl)-4,5-3H-hydro-1,3-benzodiazepine hydrochloride]: 10 mg/kg and 330 mg/kg. In turn, `NC1=Nc2ccccc2C(c2ccc(Cl)cc2)CN1` (centres unmarked) [Example 4, 2-Amino-5-(4-chlorophenyl)-4,5-3H-dihydro-1,3-benzodiazepine hydrochloride] registered an ED50 with Reserpine ptosis of 11 mg/kg. The compound further showed an LD50 in data set [1] of 1200 mg/kg. The matching figures for `Cc1ccc(C2CNC(N)=Nc3ccc(C)cc32)cc1` (centres unmarked) [Example 8, 2-Amino-7-methyl-5-(4-methylphenyl)-4,5-3H-dihydro-1,3-benzodiazepine hydrochloride]: 3 mg/kg and 2400 mg/kg. The like results for `CCOC(=O)NC1=Nc2ccccc2C(c2ccccc2)CN1` (centres unmarked) [Example 48, 2-amino-(5-Phenyl-4,5-3H-dihydro-1,3-benzodiazepin)yl ethyl carbamate] were, in that order, 13 mg/kg and greater than 3200 mg/kg.
